Results reported in patent US11040949B2, “Compounds affecting pigment production and methods for treatment of bacterial diseases” (Versitech Limited, priority 2017, dated 2021).

Legend:
[1] = system: MRSA USA 300 ATCC BAA-1717; test: Mouse (LD0-20) bacteremia model; format: in vivo, BALB/c mice; settings: IM032 0.3-30 mg/kg PO BID for 7 days; sacrificed at 168 h (Day 7)
Method: Efficacy of IM032 in a Mouse (LD0-20) Bacteremia Model Infected with Methicillin-Resistant Staphylococcus (MRSA USA300) (BAA-1717)
A bacterial strain, USA 300 MRSA BAA-1717, was used to infect BALB/c (female). Test animals were intravenously (IV) inoculated with MRSA ATCC BAA-1717 at a target density of 1×10^6 CFU/mouse. Test substance, IM032 at 0, 0.3, 1, 3, 10, and 30 mg/kg, was administered orally (PO) twice daily (BID) for a total of 7 dosing days.
The reference agents, vancomycin at 3 mg/kg was administered IV once (QD) at 1 h after infection for 7 consecutive days.
With reference to FIG. 9, the animals were IV inoculated with MRSA USA 300 ATCC BAA-1717 at 1.02×10^6 CFU/mouse. IM032 at 0.3, 1, 3, 10, and 30 mg/kg were orally (PO) administrated twice daily (BID) at 1 and 7 h after the infection on Day 1, and then twice daily at 6-hour intervals in the next 6 days for a total of 7 days of dosing. Vancomycin, at 3 mg/kg, was administered intravenously (IV) at 1 h after the infection on Day 1 and then once a day in the next 6 days for a total of 7 days of dosing. […] Statistical significance compared to the respective vehicle control was determined by unpaired student t-tests. […]
With reference to FIG. 10, bacterial density in lung and liver were determined. […] Statistical significance compared to the respective vehicle control was determined by unpaired student t-tests. […]

[2] = system: 10 different Staphylococcus aureus (S. aureus) strains; test: IM032 staphyloxanthin production inhibition, all tested strains; format: cell-based
Method: This study aimed to evaluate IM032 for its in vitro efficacy to inhibit the production of staphyloxanthin in different strains of S. aureus.
Compound IM032 was evaluated for its in vitro efficacy to inhibit staphyloxanthin production in 10 different Staphylococcus aureus (S. aureus) strains, SH1000, HG003, ATCC29213, ATCC700698, COL, JE2, LAC, USA300-3, Newman and ST239III.
The negative control was dimethyl sulfoxide (DMSO) which was used to prepare stock solutions and dilutions; positive control in this test was S. aureus strain FPR3757 treated with IM032.
The test item was dissolved at 44.9 mg/mL in DMSO at 37° C., aliquoted into several tubes, and stored at −20° C. until use. On the day of testing, a stock solution was serially diluted to testing concentrations with DMSO. […]
Each test item solution (6 μL) was combined with 0.6 mL of S. aureus culture in brain heart infusion broth (CFU per well=1×10^7). […] After centrifugation, 100 μL of supernatant was transferred to a 96-well cell culture plate and OD450 was measured. The relative pigment production at each tested concentration was calculated as follows: […]
The IC50 for each test was determined based on the calculated inhibition ratio from above with Prism 6.0 by employing a non-linear regression (four parameters) fitting method with assigned bottom and top at 0.05 and 0.95 respectively. […]

[3] = system: methicillin-resistant S. aureus (MRSA); test: MRSA skin infection, wound closure; format: in vivo, mice; settings: for wound healing compared with mupirocin and linezolid: 30 mg/kg oral BID for 7 days
Method: FIG. 11B are photos from the top view of mice with skin infection caused by MRSA before (at Day 0) and after different treatments (at Day 7): top left received 2% mupirocin via topical BID for 7 days; top right received 100 mg/kg linezolid via oral BID for 7 days; bottom received 30 mg/kg IM032 via oral BID for 7 days.
Visual wound healing/closure in different treatment groups of mice can be observed in FIG. 11B.

O=C(/C=C/c1ccccc1Br)Nc1ccc(S(=O)(=O)N2CCCCC2)cc1 [NP16-XL-016, 3-(6-bromophenyl)-N-[4-(1-piperidine-1-sulfonyl)phenyl]-acrylamide]
bacteria count across major organs [1]: statistically significant reduction in bacteria count across major organs
IC50 ([2]; Staphylococcus aureus, all 10 tested strains, read-out: IC50 of staphyloxanthin production inhibition, range over tested strains): 0.0012 to 0.07 µM
bactericidal effect (reduction in optical density) ([2]; any concentration of IM032, up to 4,000 nM): A clear bactericidal effect as evidenced by a reduction in optical density was not observed
wound healing compared with mupirocin and linezolid ([3]; listed as ALS-4): statistically significant improvement in wound healing
wound healing compared with mupirocin and linezolid ([3]; listed as IM032): best visual wound healing
percentage of wound closure ([3]; 30 mg/kg oral twice a day, Day 7): 63.8%
